By IC50 is commonly meant the concentration that gives 50% inhibition. Lower therefore signals inhibition by little substance.

The target in one assay is MNK2 (Homo sapiens, UniProt Q9HBH9). Kind of assay: MNK2 enzymatic assay. The format is biochemical.
Another assay has as its target MNK1 (Homo sapiens, UniProt Q9BUB5). As to the kind of experiment: MNK1 enzymatic assay. In kind it is biochemical.
Assay [1] relates to eIF4e phosphorylation in Hela cell line. As to the kind of experiment: eIF4e phosphorylation inhibition in Hela cell line. Conditions: Homo sapiens, cellular. In kind it is cell-based.

MNK1, sequence (Q9BUB5 whole entry): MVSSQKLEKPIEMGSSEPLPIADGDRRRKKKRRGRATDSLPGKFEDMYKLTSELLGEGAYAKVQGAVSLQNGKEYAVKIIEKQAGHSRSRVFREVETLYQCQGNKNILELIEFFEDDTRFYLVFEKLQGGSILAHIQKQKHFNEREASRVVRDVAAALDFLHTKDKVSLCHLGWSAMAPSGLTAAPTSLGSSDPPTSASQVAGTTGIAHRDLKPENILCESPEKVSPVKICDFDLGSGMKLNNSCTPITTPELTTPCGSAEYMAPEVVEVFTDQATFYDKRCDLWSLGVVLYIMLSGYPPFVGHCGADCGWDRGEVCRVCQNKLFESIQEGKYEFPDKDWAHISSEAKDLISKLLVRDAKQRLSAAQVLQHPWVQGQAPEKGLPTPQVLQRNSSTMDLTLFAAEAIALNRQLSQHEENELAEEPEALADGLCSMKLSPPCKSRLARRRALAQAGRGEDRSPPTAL
MNK2, sequence (Q9HBH9 whole entry): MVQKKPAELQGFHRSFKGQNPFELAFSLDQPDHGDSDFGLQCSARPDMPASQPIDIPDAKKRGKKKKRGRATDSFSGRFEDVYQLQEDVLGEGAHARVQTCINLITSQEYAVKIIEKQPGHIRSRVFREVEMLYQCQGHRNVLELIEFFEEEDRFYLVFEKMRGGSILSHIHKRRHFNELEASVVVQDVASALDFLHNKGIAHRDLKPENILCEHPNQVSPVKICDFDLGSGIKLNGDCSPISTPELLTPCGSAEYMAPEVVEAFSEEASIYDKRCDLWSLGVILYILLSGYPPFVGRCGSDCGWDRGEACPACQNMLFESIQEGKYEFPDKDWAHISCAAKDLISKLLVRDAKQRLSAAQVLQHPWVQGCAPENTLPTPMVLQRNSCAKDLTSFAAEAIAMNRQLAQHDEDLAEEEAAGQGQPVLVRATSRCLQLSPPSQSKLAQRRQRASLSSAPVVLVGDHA

In the case of `Cc1ccccc1C#Cc1cnc2ccc(-c3ccc(C(=O)N4CCN(C)CC4)cc3)nn12` [Example 001, (4-methylpiperazin-1-yl)(4-(3-(o-tolylethynyl)imidazo[1,2-b]pyridazin-6-yl)phenyl)methanone], the results for the IC50 (on MNK2; on MNK1; in assay [1]) were less than 0.5 µM, less than 0.5 µM and less than 5 µM, respectively.
With `CN1CCN(C(=O)c2ccc(-c3ccc4ncc(C#Cc5ccccc5)n4n3)cc2)CC1` [Example 002, (4-methylpiperazin-1-yl) (4-(3-(phenylethynyl)imidazo[1,2-b]pyridazin-6-yl)phenyl)methanone], the IC50 is less than 0.5 µM against MNK2, less than 0.5 µM against MNK1 and less than 5 µM in assay [1].
`CN1CCN(C(=O)c2ccc(-c3ccc4ncc(C#Cc5ccncc5)n4n3)cc2)CC1` [Example 005, (4-methylpiperazin-1-yl) (4-(3-(pyridin-4-ylethynyl)imidazo[1,2-b]pyridazin-6-yl)phenyl)methanone]: the values for the IC50 (against MNK2; against MNK1; in assay [1]) were less than 0.5 µM, less than 0.5 µM and less than 5 µM, respectively.
Turning to `CC(=O)Nc1cccc(C#Cc2cnc3ccc(-c4ccc(C(=O)N5CCN(C)CC5)cc4)nn23)c1` [Example 008, N-(3-((6-(4-(4-methylpiperazine-1-carbonyl)phenyl)imidazo[1,2-b]pyridazin-3-yl)ethynyl)phenyl)acetamide], the IC50 against MNK2 was less than 0.5 µM; on MNK1, less than 0.5 µM; in assay [1], less than 5 µM.
As to `O=C(c1ccc(-c2ccc3ncc(C#Cc4cccnc4)n3n2)cc1)N1CCOCC1` [Example 010, morpholino(4-(3-(pyridin-3-ylethynyl)imidazo[1,2-b]pyridazin-6-yl)phenyl)methanone], the IC50 was less than 0.5 µM at MNK2, less than 0.5 µM against MNK1 and less than 5 µM in assay [1].
As to `CS(=O)(=O)Nc1cccc(C#Cc2cnc3ccc(-c4ccc(C(=O)N5CCOCC5)cc4)nn23)c1` [Example 011, N-(3-((6-(4-(morpholine-4-carbonyl)phenyl)imidazo[1,2-b]pyridazin-3-yl)ethynyl)phenyl)methane sulfonamide], the IC50 was less than 0.5 µM on MNK2, less than 0.5 µM against MNK1 and less than 5 µM in assay [1].
In the case of `CC(=O)Nc1cccc(C#Cc2cnc3ccc(-c4ccc(C(=O)N5CCOCC5)cc4)nn23)c1` [Example 013, N-(3-((6-(4-(morpholine-4-carbonyl)phenyl)imidazo[1,2-b]pyridazin-3-yl)ethynyl)phenyl)acetamide], the IC50 against MNK2 is less than 0.5 µM; against MNK1, less than 0.5 µM; in assay [1], less than 5 µM.
On to `O=C(c1ccc(-c2ccc3ncc(C#Cc4ccnc5[nH]ncc45)n3n2)cc1)N1CCOCC1` [Example 016, (4-(3-((1H-pyrazolo[3,4-b]pyridin-4-yl)ethynyl)imidazo[1,2-b]pyridazin-6-yl)phenyl) (morpholino)methanone], for which the IC50 is less than 0.5 µM against MNK2, less than 0.5 µM against MNK1 and less than 5 µM in assay [1].
As to `Nc1cc(C#Cc2cnc3ccc(-c4ccc(C(=O)N5CCOCC5)cc4)nn23)c2cc[nH]c2n1` [Example 017, (4-(3-((6-amino-1H-pyrrolo[2,3-b]pyridin-4-yl)ethynyl)imidazo[1,2-b]pyridazin-6-yl)phenyl)(morpholino)methanone], the IC50 at MNK2 was less than 0.5 µM; on MNK1 it was less than 0.5 µM; in assay [1], less than 5 µM.
In the case of `COc1cc(C#Cc2cnc3ccc(-c4ccc(C(=O)N5CCOCC5)cc4)nn23)ccn1` [Example 019, (4-(3-((2-methoxypyridin-4-yl)ethynyl)imidazo[1,2-b]pyridazin-6-yl)phenyl) (morpholino)methanone], the IC50 on MNK2 was less than 0.5 µM; at MNK1, less than 0.5 µM; in assay [1], less than 5 µM.
Regarding `O=C(c1ccc(-c2ccc3ncc(C#Cc4cnc5cc[nH]c5c4)n3n2)cc1)N1CCOCC1` [Example 020, (4-(3-((1H-pyrrolo[3,2-b]pyridin-6-yl)ethynyl)imidazo[1,2-b]pyridazin-6-yl)phenyl) (morpholino)methanone], the IC50 was less than 0.5 µM at MNK2, less than 0.5 µM on MNK1 and less than 5 µM in assay [1].
Take `Cc1ccncc1C#Cc1cnc2ccc(-c3ccc(C(=O)N4CCOCC4)cc3)nn12` [Example 022]: the results for the IC50 (on MNK2; at MNK1; in assay [1]) were less than 0.5 µM, less than 0.5 µM and less than 5 µM, respectively.
On to `O=C(c1ccc(-c2ccc3ncc(C#Cc4cnc5[nH]ccc5c4)n3n2)cc1)N1CCOCC1` [Example 023, (4-(3-((1H-pyrrolo[2,3-b]pyridin-5-yl)ethynyl)imidazo[1,2-b]pyridazin-6-yl)phenyl) (morpholino)methanone], for which the IC50 on MNK2 was less than 0.5 µM; against MNK1, less than 0.5 µM; in assay [1], less than 5 µM.
As for `O=C(c1ccc(-c2ccc3ncc(C#Cc4c[nH]c5ncccc45)n3n2)cc1)N1CCOCC1` [Example 024, (4-(3-((1H-pyrrolo[2,3-b]pyridin-3-yl)ethynyl)imidazo[1,2-b]pyridazin-6-yl)phenyl) (morpholino)methanone], the results for the IC50 (on MNK2; on MNK1; in assay [1]) were less than 0.5 µM, less than 0.5 µM and less than 5 µM, respectively.
Consider `O=C(c1ccc(-c2ccc3ncc(C#Cc4ccc5[nH]cnc5c4)n3n2)cc1)N1CCOCC1` [Example 027, (4-(3-((1H-benzo[d]imidazol-5-yl)ethynyl)imidazo[1,2-b]pyridazin-6-yl)phenyl)(morpholino)methanone], for which the IC50 on MNK2 is less than 0.5 µM; on MNK1, less than 0.5 µM; in assay [1], less than 5 µM.
Regarding `O=C(c1ccc(-c2ccc3ncc(C#Cc4cn[nH]c4)n3n2)cc1)N1CCOCC1` [Example 028, (4-(3-((1H-pyrazol-4-yl)ethynyl)imidazo[1,2-b]pyridazin-6-yl)phenyl)(morpholino)methanone], the IC50 against MNK2 was less than 0.5 µM; against MNK1, less than 0.5 µM; in assay [1], less than 5 µM.
In the case of `O=C(c1ccc(-c2ccc3ncc(C#Cc4c(C(F)(F)F)cnc5[nH]ccc45)n3n2)cc1)N1CCOCC1` [Example 031, morpholino(4-(3-((5-(trifluoromethyl)-1H-pyrrolo[2,3-b]pyridin-4-yl)ethynyl)imidazo[1,2-b]pyridazin-6-yl)phenyl)methanone], the IC50 at MNK2 is less than 0.5 µM; against MNK1, less than 0.5 µM; in assay [1], less than 5 µM.
Regarding `O=C(c1ccc(-c2ccc3ncc(C#Cc4ccncc4)n3n2)cc1)N1CCOCC1` [Example 032], the IC50 against MNK2 is less than 0.5 µM; at MNK1 it was less than 0.5 µM; in assay [1], less than 5 µM.
As for `O=C(c1ccc(-c2ccc3ncc(C#Cc4ccnc5[nH]ccc45)n3n2)cc1)N1CCOCC1` [Example 033, (4-(3-((1H-pyrrolo[2,3-b]pyridin-4-yl)ethynyl)imidazo[1,2-b]pyridazin-6-yl)phenyl) (morpholino)methanone], the IC50 against MNK2 was less than 0.5 µM; on MNK1, less than 0.5 µM; in assay [1] it was less than 5 µM.
Take `Nc1cc(C#Cc2cnc3ccc(-c4ccc(C(=O)N5CCOCC5)cc4)nn23)ccn1` [Example 034, (4-(3-((2-aminopyridin-4-yl)ethynyl)imidazo[1,2-b]pyridazin-6-yl)phenyl) (morpholino)methanone]: the values for the IC50 (against MNK2; against MNK1; in assay [1]) were less than 0.5 µM, less than 0.5 µM and less than 5 µM, respectively.
On to `Cn1ccc2c(C#Cc3cnc4ccc(-c5ccc(C(=O)N6CCOCC6)cc5)nn34)ccnc21` [Example 035, (4-(3-((1-methyl-1H-pyrrolo[2,3-b]pyridin-4-yl)ethynyl)imidazo[1,2-b]pyridazin-6-yl)phenyl)(morpholino) methanone], for which the IC50 is less than 0.5 µM at MNK2, less than 0.5 µM on MNK1 and less than 5 µM in assay [1].
Regarding `CC(=O)Nc1cc(C#Cc2cnc3ccc(-c4ccc(C(=O)N5CCOCC5)cc4)nn23)ccn1` [Example 037, N-(4-((6-(4-(morpholine-4-carbonyl)phenyl)imidazo[1,2-b]pyridazin-3-yl)ethynyl)pyridin-2-yl)acetamide], the IC50 against MNK2 was less than 0.5 µM; on MNK1, less than 0.5 µM; in assay [1] it was less than 5 µM.
As to `O=C(c1ccc(-c2ccc3ncc(C#Cc4ccc(O)nc4)n3n2)cc1)N1CCOCC1` [Example 040, (4-(3-((6-hydroxypyridin-3-yl)ethynyl)imidazo[1,2-b]pyridazin-6-yl)phenyl) (morpholino)methanone], the results for the IC50 (against MNK2; on MNK1; in assay [1]) were less than 0.5 µM, less than 0.5 µM and less than 5 µM, respectively.
Take `O=C(CCl)Nc1cc(C#Cc2cnc3ccc(-c4ccc(C(=O)N5CCOCC5)cc4)nn23)ccn1` [Example 043]: the IC50 was less than 0.5 µM on MNK2, less than 0.5 µM against MNK1 and less than 5 µM in assay [1].
`CNCC(=O)Nc1cc(C#Cc2cnc3ccc(-c4ccc(C(=O)N5CCOCC5)cc4)nn23)ccn1` [Example 044, 2-(methylamino)-N-(4-((6-(4-(morpholine-4-carbonyl)phenyl)imidazo[1,2-b]pyridazin-3-yl)ethynyl)pyridin-2-yl)acetamide]: the IC50 against MNK2 was less than 0.5 µM; on MNK1 it was less than 0.5 µM; in assay [1], less than 5 µM.
With `O=C(c1ccc(-c2ccc3ncc(C#Cc4ccnc5[nH]ccc45)n3n2)cc1)N1CCNCC1` [Example 045, (4-(3-((1H-pyrrolo[2,3-b]pyridin-4-yl)ethynyl)imidazo[1,2-b]pyridazin-6-yl)phenyl)(piperazin-1-yl) methanone], the IC50 against MNK2 was less than 0.5 µM; at MNK1, less than 0.5 µM; in assay [1] it was less than 5 µM.
Regarding `Nc1cc(C#Cc2cnc3ccc(-c4ccc(C(=O)N5CCNCC5)cc4)nn23)ccn1` [Example 046, (4-(3-((2-aminopyridin-4-yl)ethynyl)imidazo[1,2-b]pyridazin-6-yl)phenyl)(piperazin-1-yl)methanone], the concentration for half-maximal inhibition (IC50) against MNK2 is less than 0.5 µM; against MNK1, less than 0.5 µM; in assay [1] it was less than 5 µM.
As for `Cc1ncccc1Nc1cc(C#Cc2cnc3ccc(-c4ccc(C(=O)N5CCOCC5)cc4)nn23)ccn1` [Example 047, (4-(3-((2-((2-methylpyridin-3-yl)amino)pyridin-4-yl)ethynyl)imidazo[1,2-b]pyridazin-6-yl)phenyl) (morpholino)methanone], the IC50 is less than 0.5 µM against MNK2, less than 0.5 µM against MNK1 and less than 5 µM in assay [1].
